# According to US20080009418A1, “Selective Inhibitors” (Alchemia LTD., priority 2004, published 2008):
# Tests used:
# [1] = molecular target: T1, Human δ-opioid (DOP) (Homo sapiens, UniProt P41143); experiment: Radioligand binding, human δ-opioid (DOP) membranes, FlashPlate, [3H]-Bremazocine; settings: compound at 10 μM; for A1: inhibition of radioligand binding: human DOP membranes; for A1 radioligand binding inhibition: human δ-opioid (DOP) membranes
# T1 construct: purchased Perkin Elmer Biosignal
# Summary of the method: (§1)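 Cloned human receptor membranes were coated onto FlashPlate wells and incubated with radioligand and compound (added from a 0.5 mM DMSO daughter plate) for 1 hour at room temperature in the dark. Scintillation counting gave percent inhibition, with DMSO defining total and reference ligand defining non-specific binding.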
# [2] = molecular target: T2, Mouse urotensin (mUR2) (Mus musculus, UniProt Q8VIH9); experiment: Radioligand binding, mouse urotensin mUR2 membranes, FlashPlate, [125I]-Urotensin II; settings: compound at 10 μM; for A11: inhibition of radioligand binding: mouse mUR2 membranes; for A11 radioligand binding inhibition: mouse urotensin mUR2 membranes
# T2 construct: purchased Perkin Elmer Biosignal
# T2 sequence (Q8VIH9 1-385): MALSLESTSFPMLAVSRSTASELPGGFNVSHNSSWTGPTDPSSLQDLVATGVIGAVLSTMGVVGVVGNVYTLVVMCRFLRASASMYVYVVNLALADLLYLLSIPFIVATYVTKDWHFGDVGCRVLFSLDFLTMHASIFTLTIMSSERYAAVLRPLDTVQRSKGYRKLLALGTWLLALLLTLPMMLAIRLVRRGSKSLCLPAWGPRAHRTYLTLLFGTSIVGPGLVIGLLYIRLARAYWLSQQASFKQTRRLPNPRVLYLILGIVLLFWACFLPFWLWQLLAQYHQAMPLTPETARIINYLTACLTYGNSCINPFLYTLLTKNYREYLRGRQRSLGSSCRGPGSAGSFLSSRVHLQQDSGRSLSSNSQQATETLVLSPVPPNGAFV
# Summary of the method: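 Cloned mouse urotensin (mUR2) receptor membranes from Perkin Elmer Biosignal were immobilized in FlashPlate microplates using a proprietary coating. Each well got 19.5 μl buffer, then 0.5 μl of DMSO, reference ligand, or compound. Adding 5 μl of [125I]-Urotensin II, diluted to 5× final concentration in binding buffer, started binding. Plates were sealed with TopSeal-A and incubated 1 hour at room temperature in the dark. Wells were counted for 30 seconds each on a TopCount after a 60-second delay, and percentage inhibition was calculated.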
# [3] = molecular target: T3, Human opioid (ORL1) (Homo sapiens, UniProt P41146); experiment: Radioligand binding, human opioid ORL1 membranes, FlashPlate, [125I]-Nociceptin; settings: compound at 10 μM; for A10: inhibition of radioligand binding / A10 radioligand binding inhibition: human ORL1 membranes
# T3 construct: purchased Perkin Elmer Biosignal
# Summary of the method: as §1
# [4] = molecular target: T4, Human neurokinin (NK1) (Homo sapiens, UniProt P25103); experiment: Radioligand binding, human neurokinin NK1 membranes, filtration, [125I]-Substance P; settings: compound at 10 μM; for A8: inhibition of radioligand binding: human NK1 membranes; for A8 radioligand binding inhibition: human neurokinin NK1 membranes
# T4 construct: purchased Perkin Elmer Biosignal
# Summary of the method: (§2)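 Filtration binding on cloned human receptor membranes (1 Unit/well), [125I]-Substance P for NK1 and [3H]-Diprenorphine for KOP, 1 h at room temperature. Filters PEI-presoaked, washed with cold 50 mM Tris-HCl pH 7.4, counted by scintillation; percent inhibition calculated, reference ligand defining non-specific binding.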
# [5] = molecular target: T5, Human neuropeptide Y (NPY-Y1) (Homo sapiens, UniProt P25929); experiment: Radioligand binding, human neuropeptide Y NPY-Y1 membranes, FlashPlate, [125I]-PYY; settings: compound at 10 μM; for A9: inhibition of radioligand binding / A9 radioligand binding inhibition: human NPY-Y1 membranes
# T5 construct: purchased Perkin Elmer Biosignal
# T5 sequence (P25929 1-384): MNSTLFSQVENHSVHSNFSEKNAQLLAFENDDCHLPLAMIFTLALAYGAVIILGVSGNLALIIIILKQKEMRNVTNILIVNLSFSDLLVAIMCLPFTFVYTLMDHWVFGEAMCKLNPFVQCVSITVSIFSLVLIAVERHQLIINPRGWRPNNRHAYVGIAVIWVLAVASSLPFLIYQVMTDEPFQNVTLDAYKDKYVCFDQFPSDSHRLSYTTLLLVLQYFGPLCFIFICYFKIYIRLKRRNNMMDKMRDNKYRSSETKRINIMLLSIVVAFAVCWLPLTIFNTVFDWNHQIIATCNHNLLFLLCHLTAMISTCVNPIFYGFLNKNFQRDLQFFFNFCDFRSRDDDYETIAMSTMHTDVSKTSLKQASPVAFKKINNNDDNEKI
# Summary of the method: as §1
# [6] = molecular target: T6, Human melanin-concentrating hormone (MCH1) (Homo sapiens, UniProt Q99705); experiment: Radioligand binding, human melanin-concentrating hormone MCH1 membranes, FlashPlate, [125I]-S36057; settings: compound at 10 μM; for A6: inhibition of radioligand binding: [125I]-S36057, human MCH1 membranes; for A6 radioligand binding inhibition: human MCH1 membranes
# T6 construct: purchased Perkin Elmer Biosignal
# Summary of the method: as §1
# [7] = molecular target: T7, Human Melanocortin (MC3) (Homo sapiens, UniProt P41968); experiment: Radioligand binding, human melanocortin MC3 membranes, FlashPlate, [125I]-NDP-αMSH; settings: compound at 10 μM; for A3: inhibition of radioligand binding: human MC3 membranes; for A3 radioligand binding inhibition: human melanocortin MC3 membranes
# T7 construct: purchased Perkin Elmer Biosignal
# Summary of the method: as §1
# [8] = molecular target: T8, Human melanocortin (MC5) (Homo sapiens, UniProt P33032); experiment: Radioligand binding, human melanocortin MC5 membranes, FlashPlate, [125I]-NDP-αMSH; settings: compound at 10 μM; for A5: inhibition of radioligand binding: human MC5 membranes; for A5 radioligand binding inhibition: human melanocortin MC5 membranes
# T8 construct: purchased Perkin Elmer Biosignal
# Summary of the method: as §1
# [9] = molecular target: T9, Human Melanocortin (MC4) (Homo sapiens, UniProt P32245); experiment: Radioligand binding, human melanocortin MC4 membranes, FlashPlate, [125I]-NDP-αMSH; settings: compound at 10 μM; for A4: inhibition of radioligand binding: human MC4 membranes; for A4 radioligand binding inhibition: human melanocortin MC4 membranes
# T9 construct: purchased Perkin Elmer Biosignal
# Summary of the method: as §1
# [10] = molecular target: T10, Human μ-opioid (MOP) (Homo sapiens, UniProt P35372); experiment: Radioligand binding, human μ-opioid (MOP) membranes, FlashPlate, [3H]-Naloxone; settings: compound at 10 μM; for A7: inhibition of radioligand binding: human MOP membranes; for A7 radioligand binding inhibition: human μ-opioid (MOP) membranes
# T10 construct: purchased Perkin Elmer Biosignal
# Summary of the method: as §1
# [11] = molecular target: T11, Human κ-Opioid (KOP) (Homo sapiens, UniProt P41145); experiment: Radioligand binding, human κ-opioid (KOP) membranes, filtration, [3H]-Diprenorphine; settings: compound at 10 μM; for A2: inhibition of radioligand binding: human KOP membranes; for A2 radioligand binding inhibition: human κ-opioid (KOP) membranes
# T11 construct: purchased Perkin Elmer Biosignal
# Summary of the method: as §2
# T10 sequence (P35372 whole entry): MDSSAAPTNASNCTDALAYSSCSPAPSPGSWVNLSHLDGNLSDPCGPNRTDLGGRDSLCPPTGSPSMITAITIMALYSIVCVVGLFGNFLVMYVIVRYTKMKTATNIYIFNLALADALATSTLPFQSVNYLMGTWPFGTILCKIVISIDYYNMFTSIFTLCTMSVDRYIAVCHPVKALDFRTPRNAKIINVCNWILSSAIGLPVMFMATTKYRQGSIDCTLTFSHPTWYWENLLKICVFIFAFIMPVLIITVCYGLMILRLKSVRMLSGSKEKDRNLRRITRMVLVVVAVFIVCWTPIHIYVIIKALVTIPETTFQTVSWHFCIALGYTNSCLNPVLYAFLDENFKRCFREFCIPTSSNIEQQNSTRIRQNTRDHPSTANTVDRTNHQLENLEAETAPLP
# T7 sequence (P41968 whole entry): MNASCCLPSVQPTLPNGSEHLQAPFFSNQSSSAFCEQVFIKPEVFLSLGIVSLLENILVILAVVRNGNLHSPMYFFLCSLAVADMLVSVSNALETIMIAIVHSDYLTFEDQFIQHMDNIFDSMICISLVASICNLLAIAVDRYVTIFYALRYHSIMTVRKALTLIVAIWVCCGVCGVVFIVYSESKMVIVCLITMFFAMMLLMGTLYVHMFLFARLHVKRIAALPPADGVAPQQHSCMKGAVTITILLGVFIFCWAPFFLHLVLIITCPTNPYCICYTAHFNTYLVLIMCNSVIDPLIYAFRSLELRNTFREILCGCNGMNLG
# T3 sequence (P41146 whole entry): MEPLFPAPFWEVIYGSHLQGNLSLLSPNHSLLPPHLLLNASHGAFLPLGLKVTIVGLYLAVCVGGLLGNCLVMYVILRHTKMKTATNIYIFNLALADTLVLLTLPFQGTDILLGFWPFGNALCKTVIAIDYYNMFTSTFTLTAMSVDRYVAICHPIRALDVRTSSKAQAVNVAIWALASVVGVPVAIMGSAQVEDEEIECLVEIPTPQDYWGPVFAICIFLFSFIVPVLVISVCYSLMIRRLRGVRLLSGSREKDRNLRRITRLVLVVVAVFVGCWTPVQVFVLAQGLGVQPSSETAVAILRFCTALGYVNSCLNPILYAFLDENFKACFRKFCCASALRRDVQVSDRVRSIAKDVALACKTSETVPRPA
# T1 sequence (P41143 whole entry): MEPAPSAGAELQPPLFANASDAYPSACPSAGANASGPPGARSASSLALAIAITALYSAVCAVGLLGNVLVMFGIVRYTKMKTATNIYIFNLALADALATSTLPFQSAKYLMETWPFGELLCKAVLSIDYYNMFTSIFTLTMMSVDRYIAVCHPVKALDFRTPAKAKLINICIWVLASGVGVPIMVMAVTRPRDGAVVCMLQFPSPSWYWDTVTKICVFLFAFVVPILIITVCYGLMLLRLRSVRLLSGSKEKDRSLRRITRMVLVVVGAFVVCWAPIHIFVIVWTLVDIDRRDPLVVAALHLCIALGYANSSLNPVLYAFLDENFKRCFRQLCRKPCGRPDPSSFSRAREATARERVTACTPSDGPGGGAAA
# T9 sequence (P32245 whole entry): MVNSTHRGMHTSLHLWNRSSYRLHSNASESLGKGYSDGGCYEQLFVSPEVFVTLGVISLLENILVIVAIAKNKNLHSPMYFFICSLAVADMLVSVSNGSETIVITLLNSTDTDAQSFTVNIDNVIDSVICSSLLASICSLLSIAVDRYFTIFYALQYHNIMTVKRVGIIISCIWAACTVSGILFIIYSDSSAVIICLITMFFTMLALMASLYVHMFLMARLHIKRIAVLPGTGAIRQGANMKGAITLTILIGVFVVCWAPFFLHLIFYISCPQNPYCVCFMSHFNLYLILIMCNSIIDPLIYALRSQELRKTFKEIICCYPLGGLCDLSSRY
# T8 sequence (P33032 whole entry): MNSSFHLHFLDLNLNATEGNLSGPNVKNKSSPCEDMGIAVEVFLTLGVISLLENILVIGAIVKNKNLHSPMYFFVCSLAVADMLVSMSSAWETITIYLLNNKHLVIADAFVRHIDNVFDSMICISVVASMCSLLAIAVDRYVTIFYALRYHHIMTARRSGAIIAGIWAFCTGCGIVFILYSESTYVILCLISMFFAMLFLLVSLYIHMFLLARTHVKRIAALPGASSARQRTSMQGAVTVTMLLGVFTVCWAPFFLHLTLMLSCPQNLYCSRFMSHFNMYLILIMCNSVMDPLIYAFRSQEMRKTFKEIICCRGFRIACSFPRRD
# T11 sequence (P41145 whole entry): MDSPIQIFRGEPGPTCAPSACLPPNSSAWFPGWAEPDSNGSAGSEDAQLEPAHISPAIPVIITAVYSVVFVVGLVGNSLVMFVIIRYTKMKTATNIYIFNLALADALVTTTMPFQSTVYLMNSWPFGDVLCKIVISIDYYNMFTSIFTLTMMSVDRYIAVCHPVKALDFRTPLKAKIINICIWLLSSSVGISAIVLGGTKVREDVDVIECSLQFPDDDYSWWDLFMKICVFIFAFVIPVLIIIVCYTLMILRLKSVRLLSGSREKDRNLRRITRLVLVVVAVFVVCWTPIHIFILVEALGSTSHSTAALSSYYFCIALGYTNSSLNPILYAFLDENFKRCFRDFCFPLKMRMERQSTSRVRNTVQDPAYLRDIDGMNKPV
# T6 sequence (Q99705 whole entry): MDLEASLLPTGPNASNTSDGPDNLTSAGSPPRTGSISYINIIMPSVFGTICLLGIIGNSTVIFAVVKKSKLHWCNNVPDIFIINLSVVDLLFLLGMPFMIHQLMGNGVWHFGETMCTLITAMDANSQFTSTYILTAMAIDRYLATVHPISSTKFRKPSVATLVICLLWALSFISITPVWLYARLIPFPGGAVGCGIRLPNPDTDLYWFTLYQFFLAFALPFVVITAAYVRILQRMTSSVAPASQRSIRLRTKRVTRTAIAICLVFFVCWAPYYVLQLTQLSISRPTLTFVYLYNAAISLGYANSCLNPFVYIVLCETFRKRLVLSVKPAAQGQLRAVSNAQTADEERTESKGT
# T4 sequence (P25103 whole entry): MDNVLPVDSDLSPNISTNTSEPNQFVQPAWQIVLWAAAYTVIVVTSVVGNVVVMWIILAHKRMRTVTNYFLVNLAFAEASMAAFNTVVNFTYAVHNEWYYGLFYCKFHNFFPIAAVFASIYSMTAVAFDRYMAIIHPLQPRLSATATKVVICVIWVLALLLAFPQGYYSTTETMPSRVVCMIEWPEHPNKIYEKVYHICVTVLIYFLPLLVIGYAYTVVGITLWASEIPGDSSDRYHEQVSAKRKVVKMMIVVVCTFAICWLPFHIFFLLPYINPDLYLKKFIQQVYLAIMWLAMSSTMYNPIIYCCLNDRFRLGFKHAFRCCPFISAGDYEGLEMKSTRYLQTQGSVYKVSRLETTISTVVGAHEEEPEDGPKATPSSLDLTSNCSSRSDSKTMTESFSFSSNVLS
Compound,A1: inhibition of radioligand binding ([1]; [3H]-Bremazocine),A11: inhibition of radioligand binding ([2]; [125I]-Urotensin II),A10: inhibition of radioligand binding ([3]; [125I]-Nociceptin),A8: inhibition of radioligand binding ([4]; [125I]-Substance P),A9: inhibition of radioligand binding ([5]; [125I]-PYY),A6: inhibition of radioligand binding [6],A5: inhibition of radioligand binding ([8]; [125I]-NDP-αMSH),A7: inhibition of radioligand binding ([10]; [3H]-Naloxone),A2: inhibition of radioligand binding ([11]; [3H]-Diprenorphine),A1 radioligand binding inhibition [1],A11 radioligand binding inhibition [2],A10 radioligand binding inhibition [3],A8 radioligand binding inhibition [4],A9 radioligand binding inhibition [5],A6 radioligand binding inhibition [6],A3 radioligand binding inhibition [7],A5 radioligand binding inhibition [8],A4 radioligand binding inhibition [9],A7 radioligand binding inhibition [10],A2 radioligand binding inhibition [11],further results
NCCC(=O)N[C@H]1C(OCc2ccc3ccccc3c2)O[C@H](COCc2ccc(Cl)cc2)[C@@H](O)[C@@H]1OCc1ccc(Cl)cc1 (stereo partly shown) [compound 440],− (“−” indicates less than 50% inhibition at 10 μM),− (“−” indicates less than 50% inhibition at 10 μM),− (“−” indicates less than 50% inhibition at 10 μM),+ (“+” indicates greater than 50% inhibition at 10 μM),− (“−” indicates less than 50% inhibition at 10 μM),+ (“+” indicates greater than 50% inhibition at 10 μM),+ (“+” indicates greater than 50% inhibition at 10 μM),− (“−” indicates less than 50% inhibition at 10 μM),− (“−” indicates less than 50% inhibition at 10 μM),,,,,,,,,,,,"A3: inhibition of radioligand binding ([7]; [125I]-NDP-αMSH, 10 µM): − (“−” indicates less than 50% inhibition at 10 μM); A4: inhibition of radioligand binding ([9]; [125I]-NDP-αMSH, 10 µM): − (“−” indicates less than 50% inhibition at 10 μM)"
CO[C@H]1[C@H](O)[C@@H](COCc2ccc3ccccc3c2)OC(OCc2ccc3ccccc3c2)[C@@H]1NC(=O)CNC(=N)N (stereo partly shown) [compound 70],,,,,,,,,,− (“−” indicates less than 50% inhibition at 10 μM),− (“−” indicates less than 50% inhibition at 10 μM),− (“−” indicates less than 50% inhibition at 10 μM),+ (“+” indicates greater than 50% inhibition at 10 μM),− (“−” indicates less than 50% inhibition at 10 μM),− (“−” indicates less than 50% inhibition at 10 μM),+ (“+” indicates greater than 50% inhibition at 10 μM),+ (“+” indicates greater than 50% inhibition at 10 μM),+ (“+” indicates greater than 50% inhibition at 10 μM),+ (“+” indicates greater than 50% inhibition at 10 μM),− (“−” indicates less than 50% inhibition at 10 μM),
CO[C@H]1[C@H](O)[C@@H](COCc2ccccc2)OC(OCc2ccc(Cl)cc2)[C@@H]1NC(=O)CCCN (stereo partly shown) [compound 103],,,,,,,,,,,,,,,,,,,,,"A1 radioligand binding, percentage inhibition ([1]; [3H]-Bremazocine): − (“−” indicates less than 50% inhibition at 10 μM); A11 radioligand binding, percentage inhibition ([2]; [125I]-Urotensin II): − (“−” indicates less than 50% inhibition at 10 μM); A10 radioligand binding, percentage inhibition ([3]; [125I]-Nociceptin): − (“−” indicates less than 50% inhibition at 10 μM); A8 radioligand binding, percentage inhibition ([4]; [125I]-Substance P): + (“+” indicates greater than 50% inhibition at 10 μM); A9 radioligand binding, percentage inhibition ([5]; [125I]-PYY): − (“−” indicates less than 50% inhibition at 10 μM); A6 radioligand binding, percentage inhibition ([6]; [125I]-S36057): − (“−” indicates less than 50% inhibition at 10 μM); A3 radioligand binding, percentage inhibition ([7]; [125I]-NDP-αMSH): − (“−” indicates less than 50% inhibition at 10 μM); A5 radioligand binding, percentage inhibition ([8]; [125I]-NDP-αMSH): − (“−” indicates less than 50% inhibition at 10 μM); A4 radioligand binding, percentage inhibition ([9]; [125I]-NDP-αMSH): − (“−” indicates less than 50% inhibition at 10 μM); A7 radioligand binding, percentage inhibition ([10]; [3H]-Naloxone): − (“−” indicates less than 50% inhibition at 10 μM); A2 radioligand binding, percentage inhibition ([11]; [3H]-Diprenorphine): − (“−” indicates less than 50% inhibition at 10 μM)"
N=C(N)NCC(=O)NC1C(OCc2ccc(-c3ccccc3)cc2)OC(COCc2ccc(Cl)cc2)C(O)C1OCc1ccc2ccccc2c1 (stereo not shown) [compound 404],− (“−” indicates less than 50% inhibition at 10 μM),− (“−” indicates less than 50% inhibition at 10 μM),+ (“+” indicates greater than 50% inhibition at 10 μM),+ (“+” indicates greater than 50% inhibition at 10 μM),− (“−” indicates less than 50% inhibition at 10 μM),− (“−” indicates less than 50% inhibition at 10 μM),+ (“+” indicates greater than 50% inhibition at 10 μM),− (“−” indicates less than 50% inhibition at 10 μM),− (“−” indicates less than 50% inhibition at 10 μM),,,,,,,,,,,,A3: inhibition of radioligand binding ([7]; [125I]-NDP-αMSH): + (“+” indicates greater than 50% inhibition at 10 μM); A4: inhibition of radioligand binding ([9]; [125I]-NDP-αMSH): + (“+” indicates greater than 50% inhibition at 10 μM)
CO[C@H]1[C@H](O)[C@@H](COCc2ccc(Cl)cc2)OC(OCc2ccc(-c3ccccc3)cc2)[C@@H]1NC(=O)CCCNC(=N)N (stereo partly shown) [compound 65],,,,,,,,,,− (“−” indicates less than 50% inhibition at 10 μM),− (“−” indicates less than 50% inhibition at 10 μM),− (“−” indicates less than 50% inhibition at 10 μM),+ (“+” indicates greater than 50% inhibition at 10 μM),− (“−” indicates less than 50% inhibition at 10 μM),− (“−” indicates less than 50% inhibition at 10 μM),+ (“+” indicates greater than 50% inhibition at 10 μM),+ (“+” indicates greater than 50% inhibition at 10 μM),+ (“+” indicates greater than 50% inhibition at 10 μM),+ (“+” indicates greater than 50% inhibition at 10 μM),− (“−” indicates less than 50% inhibition at 10 μM),
